Source: US20210161837A1, “METHODS FOR TREATING CANCER WITH RORGAMMA INHIBITORS” (The Regents of the University of California, priority 2016, published 2021)

Experiments:
RORγ = biological target: T1, RORγ (Homo sapiens, UniProt P51449); test: RORγ transcriptional activity, reporter gene assay in 293T cells with Gal4-RORγ LBD expression vectors; type: cell-based; conditions: read-out: EC50, inhibition of RORγ constitutive activity
T1 construct: reporter gene assay in 293T cells with Gal4-RORγ LBD expression vectors; expressed in transfected cells; host or cells: 293T cells
T1 sequence (P51449 269-508 limits assumed): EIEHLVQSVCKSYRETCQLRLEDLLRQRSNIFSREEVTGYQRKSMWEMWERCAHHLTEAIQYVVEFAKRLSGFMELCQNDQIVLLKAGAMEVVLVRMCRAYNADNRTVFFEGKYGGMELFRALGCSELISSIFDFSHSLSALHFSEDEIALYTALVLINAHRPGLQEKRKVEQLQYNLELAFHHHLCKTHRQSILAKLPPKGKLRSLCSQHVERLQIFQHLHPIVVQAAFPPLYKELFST
Method: The 2-([1,1′-biphenyl]-4-yl)-1,1,1,3,3,3-hexafluoropropan-2-ol group of SR2211 was kept, while the amide group of the GSK agonist was chosen as linker. FIG. 2B illustrates RORγ transcriptional activity measured by reporter gene assay in 293T cells with Gal4-RORγ LBD expression vectors. EC50 values are reported as means±s.d. for ≥8 separate titrations from 10 μM. In vitro binding to the ligand binding domain (LBD) was measured by AlphaScreen and by thermal shift assay (TSA).
For example, the phenyl group in the middle likely forms a π-π interaction with the side chain of Phe378 of the LBD, while the amide group can form a direct hydrogen bond with Phe377. The nitro group and hydroxyl group at the two ends may form hydrogen bonds with Glu379 and His479, respectively.

LNCaP cells = test: Cell viability (CellTiter-GLO), 4 days; type: cell-based; conditions: Homo sapiens, read-out: inhibitory potency (growth inhibition)
Method: (§1) (a&b) C4-2B and 22Rv1 cell proliferation after the RORγ antagonist treatment. Cells were seeded in 6-well plates and counted after cells were treated with indicated concentrations of RORγ antagonists for 0, 2, 4 and 6 days by Coulter counter. […] (e) representative images of TUNEL positive cells treated with vehicle or the antagonist (5 μM) in 22Rv1 cells are shown. […] Three days later, cells were harvested for immunoblotting with indicated antibodies.
(§2) LNCaP, C4-2B, 22Rv, PC-3, and PC346C prostate cancer cells were cultured in RPMI1640, VCaP, HEK293T and human fibroblast IMR90 cells were in DMEM, LAPC-4 was in Iscove's MEM (all from Corning), and RWPE-1 and PZ-HPV-7 were in Keratinocyte Serum Free Medium (K-SFM) (Invitrogen) with the supplements. All the culture media except for RWPE-1 and PZ-HPV-7 were supplemented with 10% FBS (Hyclone) except indicated otherwise. […]
For cell viability, cells were seeded in 96-well plates at 1500-2500 cells per well (optimum density for growth, depending on the specific cell line) in a total volume of 100 μl media. […] After 4 days of incubation, Cell-Titer GLO reagents (Promega) were added and luminescence was measured on GLOMAX microplate luminometer (Promega), according to the manufacturer's instructions. […] The estimated in vitro IC50 values were calculated using GraphPad Prism 6 software.

CRPC cells = test: Growth inhibition of CRPC cells compared with enzalutamide; type: cell-based, human
Method: (§3) Data shown are mean percentage of apoptotic cells±s.d. […] Data shown are mean±s.d. Significance was calculated using Student's t-test. *p<0.05, **p<0.01.
as §1
as §2, with “otherwise. For experiments, C4-2B cells were cultured in RPMI supplemented with 9% cds-FBS plus 1% regular FBS (to mimic the CRPC condition) unless indicated otherwise and 22Rv1 cells were cultured in RPMI supplemented with 10% cds-FBS. Cells were grown at 37° C. in 5% CO2 incubators. LNCaP, VCaP, 22Rv1, PC-3, 293T, IMR90, PZ-HPV-7 and RWPE-1 were from ATCC.” for “otherwise.”

[1] = test system: key proliferation and survival proteins, including Myc; test: Immunoblotting of key proliferation and survival proteins; type: cell-based, human; conditions: 3 days
Method: as §3, §1
(§4) Total RNA was isolated from cells in 6-well or 10-cm plates or from xenograft tumors, and the cDNA was prepared, amplified and measured in the presence of SYBR as described in Yang, P., et al., Molecular and cellular biology 32, 3121-3131 (2012). Briefly, the fluorescent values were collected and a melting curve analysis was performed. Fold difference was calculated as described previously Yang, P., et al. (see, id). The experiments were performed at least three times with data presented as mean values±s.d. Cell lysates were analyzed by immunoblotting with antibodies specifically recognizing RORγ, AR, AR-V7 and the indicated proteins.

AR and AR-V7 expression = test: Immunoblotting and qRT-PCR of AR and AR-V7 expression in C4-2B and VCaP cells; type: cell-based, human
Method: Data shown are mean±s.d. Significance was calculated using Student's t-test. *p<0.05, **p<0.01.
as §4

[2] = test system: TNBC cells including MDA-MB468, MDA-MB231, BT20, SUM149 and HCC1937; test: Cell viability (CellTiter-GLO), 4 days, TNBC cells; type: cell-based; conditions: Homo sapiens, 96 h
Method: For cell viability, cells were seeded in 96-well plates at 1500-2500 cells per well (optimum density for growth, depending on the specific cell line) in a total volume of 100 μl media. Serially diluted compounds in 100 μl of media were added to the cells 12 hours later. After 4 days of incubation, Cell-Titer GLO reagents (Promega) were added and luminescence was measured on GLOMAX microplate luminometer (Promega), according to the manufacturer's instructions. All experimental points were set up as sextuplicate as biological replication and the entire experiments were repeated three times. The data are presented as percentage of viable cells with vehicle treated cells set as 100. The estimated in vitro IC50 values were calculated using GraphPad Prism 6 software.

MCF-7-C6 = test: Growth and survival of radiation-resistant breast cancer cells; type: cell-based, human; conditions: radiation-resistant MCF-7-C6
MCF-7-TamR = test: Growth and survival of tamoxifen-resistant breast cancer cells; type: cell-based, human
[3] = test system: OVCAR420, T24, ECC1, T98G, SUDHL4, SUDHL6, HCT116 and docetaxel-resistant C4-2B cells; test: Cell viability (CellTiter-GLO), 4 days, further cancer types; type: cell-based; conditions: Homo sapiens, 96 h, ovarian, bladder, endometrial, glioblastoma, DLBCL, colon
[4] = test system: SUM159 orthotopic xenograft tumors; test: TNBC SUM159 orthotopic xenograft tumor growth in SCID mice; type: in vivo, mouse; conditions: 5 mg/kg, i.p., 5 times per week, 45 days
Method: Orthotopic xenograft tumor models and chemical compound treatments: Four-week-old female SCID C.B17 mice (for TNBC SUM159 cell lines) were purchased from Harlan Inc. For establishing tumors, 2×10^6 cells were suspended in total of 100 μL PBS/Matrigel (1:1) and implanted orthotopically into the 4th inguinal mammary fat pads at both sides. Animal group size of six or more was estimated to have a high statistical power, based on power calculation (www.biomath.info/pgwer/) and 20 previous studies involving the same xenograft models. When the tumor volume was approximately 50 mm^3, the mice were randomized and then treated intraperitoneally (i.p.) with 100 μl of vehicle or RORγ inhibitors F18/No. 37, 5 mg/kg; GSK805, 5 mg/kg; GNE3500, 5 mg/kg. (in a formulation of 15% Cremophor EL, Calbiochem, 82.5% PBS, and 2.5% DMSO) for five times per week. Tumor growth was monitored by calipers with volume calculated using the equation: π/6 (length×width^2). Mouse body weight during the course of the study was also monitored. At the end of the studies, mice were killed and tumors were dissected and weighed.

## O=C(Cc1ccccc1[N+](=O)[O-])Nc1ccc(-c2ccc(C(O)(C(F)(F)F)C(F)(F)F)cc2F)cc1 [XY018, N-(2′-fluoro-4′-(1,1,1,3,3,3-hexafluoro-2-hydroxypropan-2-yl)-[1,1′-biphenyl]-4-yl)-2-(2-nitrophenyl)acetamide]
RORγ
  EC50: 190 nM
LNCaP cells
  IC50: 2100 nM
CRPC cells
  growth inhibition, potency relative to enzalutamide: strong growth inhibition with much higher potencies than that of enzalutamide
[1]
  expression of key proliferation and survival proteins, including Myc: strongly inhibited the expression
AR and AR-V7 expression
  AR and AR-V7 expression: inhibited by XY018 in dose-dependent manner
[2]
  IC50: 500 to 3000 nM
MCF-7-C6
  inhibition of growth and survival: potently inhibiting the growth and survival
MCF-7-TamR; MCF-7-TamR, tamoxifen plus XY018
  growth inhibitory effect of tamoxifen in combination with XY018: synergistic growth inhibitory effect
MCF-7-TamR; tamoxifen-resistant MCF-7-TamR, XY018 alone
  inhibition of growth and survival: potently inhibiting the growth and survival
[3]
  IC50: < 3500 nM
[4]
  orthotopic tumor growth inhibition: effectively inhibited the orthotopic TNBC tumor growth
